In US10675293B2, “Nucleoside agents for the reduction of the deleterious activity of extended nucleotide repeat containing genes” (The Board of Trustees of the Leland Stanford Junior …, priority 2015, dated 2020):
Entries after “also recorded” stand apart in the source; their conditions may differ.

Tests used:
[1] = molecular target: T1, Supt4h-YC / Supt5h NGN-YN interaction (Homo sapiens, UniProt O00267+P63272); assay: Bimolecular fluorescence complementation (BiFC) assay in 2-PN4 stable cells; type: cell-based; settings: 24 hr with Doxycycline 4 μg/ml
T1 construct: NGN-YN is a genetic engineered protein in which Supt5h NGN domain is fused to YFP YN; expressed in transfected cells
Procedure: Human Supt4h and Supt5hNGN were fused in-frame with the YC and YN respectively. The YN and YC represent the N- and C-terminal domain of yellow fluorescent protein Venus. To prevent a change in protein folding caused by the conjugation of two polypeptides (Kerppola, “Design and implementation of bimolecular fluorescence complementation (BiFC) assays for the visualization of protein interactions in living cells,” Nature protocols (2006) 1:1278-1286), a protein linker containing additional 10 amino acid residues was included in the fusion protein. Also, extra amino acids GSHM were incorporated into the Supt5hNGN to increase its protein stability (Wenzel et al., “Crystal structure of the human transcription elongation factor DSIF hSpt4 subunit in complex with the hSpt5 dimerization interface,” The Biochemical journal (2010) 425:373-380). Supt4h, NGN, YC, and YN were amplified by PCR to generate DNA fragments containing the nucleotide sequence of protein linker. Supt4h and NGN PCR products then were mixed with the PCR product of YN or YC for secondary overlapping PCR. Finally, the resulting Supt4h-YC and NGN-YN DNA fragment was cloned into plasmid vector pcDNA3-HA and pFLAG-CMV-2 respectively.
(§1) Tet-on HeLa cells were transfected with linearized pTRE-HA-Supt4h-VC-Flag-NGN-VN plasmid construct using LipofectAMINE 2000 (Invitrogen). After transfection, cells were cultured initially in growth medium containing puromycin (1 μg/ml) and then selected for clones that show YFP fluorescence in the presence of tetracycline (4 μg/ml). The stable line having the strongest fluorescence signal was isolated and designated as 2-PN4. Likewise, 21-VS stable line was created using pTRE-HA-Venus.
(§2) Stable lines 2-PN4 and 21-VS were pre-cultured in 6-well plates, followed by an incubation of Doxycycline (4 μg/ml) together with various concentrations of chemical compounds for 24 hr. Cells were washed with PBS (Sigma) and monitored by microscope (20× magnification). Photos were taken using Nikon D500 camera with a setting of ISO 1600, shutter 1/200 for the light images, and shutter ½ for the fluorescence images. For quantification of fluorescence intensity, 5 photos with similar cell number were taken and the fluorescence signal was measured by Metamorph software individually. The average of overall fluorescence signal was determined and compared to the one observed in DMSO-treated control sample.
For the purpose of high-throughput drug screening, based on the BiFC method as mentioned above, we have created a stable cell line that co-expresses NGN-YN and Supt4h-YC under the control of a tet-on inducible promoter. […] If the complementation that is driven by NGN and Supt4h interaction is inhibited by a given test compound, the de novo YFP fluorescence signal is affected. […]

21-VS cells (HA-Venus) = assay: Control fluorescence of 21-VS stable cells expressing intact Venus; type: cell-based; settings: same experimental conditions as 2-PN4 cells
Procedure: The HA-Supt4h-YC and FLAG-NGN-YN fragments were amplified by PCR using plasmid constructs described above and sub-cloned individually into the pTRE-tight-BI vector (Clontech Laboratories), which contain a bi-directional CMV promoter under the control of tetracycline. The coding sequence of yellow fluorescence protein Venus with a HA-epitope in its N-terminus was PCR-amplified and cloned into the vector to generate pTRE-HA-Venus.
as §1, with “Likewise, 21-VS stable line was created using pTRE-HA-Venus.” left out
as §2, with “For quantification of fluorescence intensity, 5 photos with similar cell number were taken and the fluorescence signal was measured by Metamorph software individually.” left out, “sample. […]” for “sample.”

[2] = tested on: Supt4h-YC and NGN-YN protein expression; assay: Western blot of Supt4h-YC and NGN-YN protein levels in 2-PN4 cells; type: cell-based, human
Procedure: As described (Liu et al., “Spt4 is selectively required for transcription of extended trinucleotide repeats,” Cell (2012) 148:690-701), equal amounts of protein were resolved by electrophoresis on 12% sodium dodecyl sulfate (SDS)-polyacrylamide gels, and transferred onto nitrocellulose membranes (nitrocellulose, Waterman 0.45 μM, NBA085C). After blocking with 5% low-fat milk in Tris-buffer saline containing 0.1% Tween-20, membranes were probed with primary antibodies, incubated with a horseradish peroxidase (HRP)-conjugated secondary antibody, and detected by ECL reagent (enhanced chemiluminescence, PerkinElmer).

[3] = molecular target: T2, Supt4h-YC / NGN-YN complex (Homo sapiens, UniProt O00267+P63272); assay: Co-immunoprecipitation of HA-Supt4h-YC with Flag-NGN-YN from 2-PN4 cells; type: cell-based; settings: 20 μM, 36 hr, immunoprecipitation with anti-HA
T2 construct: NGN-YN is a genetic engineered protein in which Supt5h NGN domain is fused to YFP YN; expressed in transfected cells
Procedure: 2-PN4 cells, following a treatment of 6CR (Cf=20 μM) for 36 hr, were lysed with modified RIPA buffer (50 mM Tris-HCl [pH 7.5], 150 mM NaCl, 1% NP-40, 1% sodium deoxycholate), supplement with 1 mM Na3VO4, 1 mM DTT, 1 mM PMSF and protease inhibitor cocktail (Sigma). The collected protein lysates (1 mg) were diluted with modified RIPA buffer to a final volume of 0.5 ml and then incubated with anti-HA antibodies (1 μg) overnight. Following incubation with protein A agarose beads (Millipore) for another 6 hr, the beads were washed twice with modified RIPA buffer containing 20 μM 6CR. All of these performances were carried out at 4° C. For detection of proteins that coprecipitated with HA-Supt4h-YC, the immunocomplex was fractionated by SDS-PAGE, followed by Western blotting analysis with anti-HA and anti-FLAG antibodies.

mutant Htt gene = assay: RT-PCR of Htt mRNA in Hdh Q111/Q111 striatal cells; type: cell-based, mouse; settings: compared to mock control
Procedure: (§3) Tet-on HeLa cells (Clontech Laboratories), and stable line 2-PN4 and 21-VS were cultured in DMEM (Gibco) supplemented with 10% Tet-off fetal bovine serum (Gibco) at 37° C. with 5% CO2. Hdh Q7/Q7 (mouse), Hdh Q111/Q111 (mouse) were cultured in DMEM (HyClone) supplemented with 10% fetal bovine serum at 33° C. with 5% C02.
(§4) Total RNA was extracted from murine neuronal cells using TRI Reagent (Sigma). For cDNA conversion, 2 μg of total RNA was mixed with 5 μM random primer, 5 μM SnRNA U6 rt-PCR primer and 500 μM dNTPs, incubated at 65° C. for 5 min and then chilled on ice. After addition of First-Strand Buffer, DTT (Cf=10 mM) and 1 μl reverse transcriptase (Invitrogen), the reaction was carried out at 42° C. for 1 hr. Equal volumes of cDNA products were PCR amplified and resolved on 2.5% agarose gels to determine the abundance of Htt transcripts after normalization with U6 or 18S ribosomal RNA.

wild-type Htt gene = assay: RT-PCR of Htt mRNA in Hdh Q7/Q7 striatal cells; type: cell-based, mouse; settings: compared to mock control
Procedure: as §3, §4

[4] = tested on: mutant Huntingtin protein; assay: Western blot of mutant HTT in Huntington's disease patient iPSC ND36999; type: cell-based, human; settings: iPSC with 180 CAG repeats, 24 hr
Procedure: (§5) Cell samples were lysed in 30 mM Tris-HCl, pH 8.0, 5 mM NaCl, 0.1% Triton X-100 for 10 min on ice. The supernatants from spinning (14 k rpm for 10 min) were collected. The protein concentrations were determined by BCA assay (Pierce, ThermoFisher). Equal amounts of protein were loaded onto 4-12% gel. After electrophoresis, the gels were transferred to nitrocellulose membranes by wet transfer at 35V for 16 hr. The protein level of mutant HTT, total HTT and tubulin were determined by immunoblotting with anti-poly Glutamine (MAB1574 from Millipore), anti-Huntingtin protein (MAB2166 from Millipore) and anti-alpha tubulin (AJ1034a from ABGENT). Blots were imaged on a Li-Cor Odyssey infrared imager. The bands intensities were determined by Li-Cor Odyssey software.
(§6) To test whether the nucleoside 6-Azauridine (HD101) and (−)-6-Azauridine 2′,3′,5′-triacetate (HD106) can affect the expression of proteins with long polyQ domains, one iPSC (induced pluripotent stem cell) line ND36999, which was derived from a Huntington's disease patient who carries one allele of mutant htt gene with 180 CAG repeats, was purchased from the Coriell Institute. The iPSCs were plated into a 24-well plate coated with Matrigel. […] Cells were lysed and the protein concentrations were determined by BCA assay. […] The image (FIG. 10) was taken and the quantification was made by Li-Cor Odyssey imaging system.

total Huntingtin protein = assay: Western blot of total HTT in Huntington's disease patient iPSC ND36999; type: cell-based, human; settings: iPSC with 180 CAG repeats, 24 hr
Procedure: as §5, §6

Row | SMILES | fluorescence intensity of 2-PN4 cells relative to control sample ([1]; 10 μM) | BiFC fluorescence signal of 2-PN4 cells ([1]; various concentrations) | fluorescence signal of 21-VS cells (21-VS cells (HA-Venus)) | protein expression of Supt4h-YC and NGN-YN [2] | complex formation of Supt4h-YC and NGN-YN [3] | Htt mRNA transcribed from mutant allele (mutant Htt gene) | Htt mRNA in cells with homozygous wild-type Htt allele (wild-type Htt gene) | mutant Huntingtin protein level [4] | total Huntingtin protein expression level (total Huntingtin protein)
1 | OC[C@H]1O[C@@H](n2cnc3c(Cl)ncnc32)C(O)C1O (stereo partly drawn) [6CR, 6-Chloropurine riboside] | decreased to half of control sample | reduces the fluorescence signal of 2-PN4 cells in a concentration-dependent manner; also recorded: inhibits Supt4h-YC and NGN-YN interaction | not altered | does not interfere with the protein expression | lower the complex formation | down-regulated; also recorded: reduces the expression of mutant Htt gene | not detectable |  | 
2 | CC(=O)OC[C@H]1O[C@@H](n2ncc(=O)[nH]c2=O)[C@H](OC(C)=O)[C@@H]1OC(C)=O [HD106, (−)—6-Azauridine 2′,3′,5′-Triacetate] |  |  |  |  |  |  |  | preferentially decrease mutant Huntingtin protein in a dose dependent manner; also recorded: reduced mutant huntingtin expression in a dose dependent manner | little effect
